Measured values taken from patent publication US9353075B2, “Disubstituted beta-lactones as inhibitors of N-acylethanolamine acid amidase (NAAA)” (The Regents of the University of California, priority 2011, dated 2016).
pIC50: −log10 of the molar value. Entries after “also recorded” stand apart in the source; their conditions may differ. Read-outs that look alike come from different tables or passages of the source.

How the values were obtained:
[1] = system: 48/80-induced scratching (mast cell degranulation); experiment: Compound 48/80-induced scratching in mice; type: in vivo, mouse; conditions: topical, single dose
Experimental: The methods include the following. Itching in mice was induced with DNFB as previously described. Additional studies were done with 48/80 model (an inducer of mast cell degranulation). 48/80 was given subcutaneously (30 mg per kg).

[2] = system: skin integrity (ear thickness, histopathology); conditions: in vivo
Experimental: The methods included the following. Drug or vehicle were given topical to both ears of CD1 mice for 14 days. Ear thickness was determined by using a micrometer. Histopathological analyses were conducted on formalin-fixed, paraffin-embedded ear sections […] thick and stained with Hematoxylin-Eosin. Epidermal thickness was measured with standard morphometric methods from 12 different samplings spanning the treated area of each ear. Data were analysed by ANOVA followed by Bonferroni's test for multiple comparisons.

[3] = system: carrageenan-induced paw edema and hyperalgesia; experiment: Carrageenan-induced inflammatory responses in mice; type: in vivo, mouse
Experimental: The Methods include the following: Carragenan (1%) was injected into the left hind paw of Swiss albino mice. Paw edema was measured using a plethysmomether. Cutaneous hyperalgesia (thermal) was assesed by the plantar test (see Hargreaves K, et a 1 (1988), Pain 32: 77-88). Compound 6 was administered topically.

[4] = Chemical stability in PBS buffer pH 7.4; type: physicochemical; conditions: phosphate-buffered saline, 0.01M PBS pH 7.4, 37° C., read-out: Stability in PBS buffer, pH 7.4 t1/2
Experimental: Chemical stability of select compounds was evaluated under physiological pH conditions (0.01M Phosphate-Buffered Saline, pH 7.4) for up to 24 h. Stock solutions of each compound (10 mM) were prepared freshly in DMSO. Each compound was incubated at a final concentration of 10 μM (1% DMSO) in pre-heated buffer (0.01M Phosphate-Buffered Saline (PBS), pH 7.4 at 37° C.). The sample solutions were divided into aliquots in glass vials (pre-heated at 37° C.) for each time point. The samples were maintained at 37° C. in the UPLC/MS Autosampler during the study (no shaking). A reference solution of each compound (final concentration: 10 μM at 1% DMSO) in pre-heated CH3CN (37° C.) was prepared from the stock solutions (10 mM in DMSO). The reference solutions were maintained at 37° C. in the UPLC/MS Autosampler during the study (no shaking). An internal standard (100 nM) was added to the sample and reference solutions. For each time point, the samples were analyzed directly by LC/MS without any further sample preparation. The samples were analyzed (triplicate injection) by monitoring the MS trace by Multiple Reaction Monitoring (MRM). The compound concentration (expressed as %) was calculated by dividing the peak area at each time point by the peak area at t=0 min. The reference solution was analyzed at the beginning (t=0 min.), and at the end of the study (t=24 h). The apparent half-lives (t1/2) of the disappearance of compound were calculated by a one-phase decay equation using a non-linear regression of compound concentration versus time.
The analyses were performed on a Waters ACQUITY UPLC/MS TQD system consisting of a TQD (Triple Quadropole Detector) Mass Spectrometer equipped with an Electrospray Ionization interface and a Photodiode Array Detector. The analyses were run on an ACQUITY UPLC BEH C18 1.7 μm 2.1×50 mm column with a VanGuard BEH C18 1.7 μm pre-column at 40° C. The mobile phase was 0.1% HCOOH in H2O (A) and 0.1% HCOOH in CH3CN (B) using a linear gradient: 0-0.2 min.: 5% B, 0.2-2.2 min.: 5-95% B, 2.2-2.3 min.: 95-5% B, 2.3-3 min.: 5% B with flow rate at 0.5 mL/min. […]

h-NAAA = h-NAAA (Homo sapiens (Human), UniProt Q02083); experiment: UPLC/MS h-NAAA assay; type: biochemical
Experimental: NAAA protein preparation (10 μg) was pre-incubated with various concentrations of test compound or vehicle control in 100 mM NaH2PO4, 100 mM Tri Sodium Citrate Dehydrate, 0.1% Triton-X 100, 3 mM DTT, pH 4.5 for 30 min at 37° C. Duplicate samples were then incubated with 50 μM C17:1 10-cis-heptadecenoylethanolamide (Avanti Polar Lipids, Alabaster, Ala.—USA) at 37° C. for 30 minutes. The reaction was terminated by the addition of 0.2 mL of cold methanol containing 1 nmol of heptadecanoic acid (NuChek Prep, Elysian, Minn.—USA) as internal standard. Samples were then analyzed by UPLC/MS. Heptadecenoic and heptadecanoic acids were eluted on an Acquity UPLC BEH C18 column (50 mm length, 2.1 mm i.d., 1.7 μm pore size, Waters) isocratically at 0.5 mL/min for 1.5 min with a solvent mixture of 95% methanol and 5% water, both containing 0.25% Acetic Acid and 5 mM Ammonium Acetate. The column temperature was 40° C. Electrospray ionization was in the negative mode, capillary voltage was 2.7 kV, cone voltage was 45 V, extractor voltage was 3 V. The source temperature was 150° C. with a desolvation temperature of 400° C. N2 was used as drying gas at a cone flow of 100 L/hour and a desolvation flow of […]. The [M−H]-ion was monitored in the selected-ion monitoring mode (m/z values: heptadecenoic acid 267.37, heptadecanoic acid 269.37). Calibration curves were generated using commercial heptadecenoic acid (NuCheck Prep) Inhibition of NAAA activity was calculated as reduction of heptadecenoic acid in the samples compared to vehicle controls. IC50 values were calculated by non-linear regression analysis of log [concentration]/inhibition curves using GraphPad Prism 5 (GraphPad Software Inc., CA—USA) applying a standard slope curve fitting.

[5] = compound 6 30% topical, antagonists 1 μg/paw intraplantar

Sequence of h-NAAA (Q02083 29-359): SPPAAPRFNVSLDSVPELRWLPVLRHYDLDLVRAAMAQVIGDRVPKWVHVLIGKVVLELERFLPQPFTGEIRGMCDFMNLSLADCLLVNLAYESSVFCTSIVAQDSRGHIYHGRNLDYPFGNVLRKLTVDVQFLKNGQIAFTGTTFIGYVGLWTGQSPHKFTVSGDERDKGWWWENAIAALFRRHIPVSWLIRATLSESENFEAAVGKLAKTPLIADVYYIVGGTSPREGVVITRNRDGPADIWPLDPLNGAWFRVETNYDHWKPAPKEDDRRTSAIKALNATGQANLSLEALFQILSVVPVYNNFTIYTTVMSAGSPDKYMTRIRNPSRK

Skin atrophy (decrease of ear thickness) ([2]; CD1, mouse, 14 days): but not compound 6, causes skin atrophy
Cellular architecture, histopathological and morphometric analysis ([2]; mouse): no alterations of cellular structure
Skin atrophy (decrease of ear thickness) ([2]; mouse): did not affect skin integrity
half-life at 10 μM [4]: 1.7 h
pIC50 (h-NAAA): 8.15
SMILES: C[C@@H]1OC(=O)[C@@H]1NC(=O)OCCCCCc1ccccc1 [Example 6, 5-phenylpentyl-[(2S,3R)-2-methyl-4-oxooxetan-3-yl]-carbamate]
Dose of maximal effect, 48/80-induced scratching [1]: 1%
Lowest effective dose, 48/80-induced scratching [1]: 0.01%
48/80-induced scratching ([1]; 48/80 30 mg per kg s.c.): prevents 48/80-induced scratching
Cellular architecture, histopathological and morphometric analysis ([2]; CD1, mouse, 14 days): but not compound 6, altered cellular architecture
Anti-inflammatory effect on cutaneous hyperalgesia with receptor antagonists [3, 5]: blocked by PPAR-α antagonists, but not by CB1 or CB2 receptor antagonists
Anti-inflammatory effect on paw edema with receptor antagonists [3, 5]: blocked by PPAR-α antagonists, but not by CB1 or CB2 cannabinoid receptor antagonists
Carrageenan-induced paw edema ([3]; mice, topical): marked anti-inflammatory
Carrageenan-induced hyperalgesia ([3]; mice, topical, 90 min after carrageenan): dose-dependently reduces carrageenan-induced hyperalgesia; also recorded: anti-hyperalgesic effects
Anti-inflammatory effects on paw edema and cutaneous hyperalgesia in mice lacking PPAR-α ([3]; topical, 90 min after carrageenan): absent in mice lacking PPAR-α
